Laboratory results as given in ChEMBL document CHEMBL1142690, “Synthesis of NO-donor bisphosphonates and their in-vitro action on bone resorption” (J Med Chem, 2005).

What was measured:
[1] = Affinity for hydroxyapatite after 24 hours; type: functional
[2] = Dissociation constant determined by the pH-metric method; type: functional
RAW264.7 [3] = test: Effect of compound on osteoclasts formation (compound concentration of 100 nM and RANKL at 50 ng/ml) as observed in clonal RAW264.7 cells; type: functional, Mus musculus
RAW264.7 [4] = test: Effect of compound on osteoclasts formation (compound concentration of 100 nM, RANKL at 50 ng/ml and ODQ at 10 uM) as observed in clonal RAW264.7 cells; type: functional, Mus musculus
Rattus norvegicus = species: Rattus norvegicus; test: Effect of compound on osteoclasts formation at concentration of 100 nM in rat femurs; type: functional, Femur
Rattus [5] = test: Effect of compound on osteoclast resorption activity at concentration of 100 nM in rat femur; type: functional
Rattus [6] = test: Effect of compound on osteoclast resorption activity at concentration of 100 nM in rat femurs; type: functional, Femur

SMILES | Affinity [1] | pKa1 [2] | pKa2 [2] | pKa3 [2] | pKa4 [2] | Count (RAW264.7 [3]) | Count (RAW264.7 [4]) | Count (Rattus norvegicus) | Ratio (Rattus [5]) | Ratio (Rattus [6])
O=[N+]([O-])OCCCCC(O)(P(=O)(O)O)P(=O)(O)O | 43.4% | < 1.5 | 2.85 | 6.83 | 11.3 | 32.8 | 59.6 | – | – | –
O=[N+]([O-])OCCCCC(P(=O)(O)O)P(=O)(O)O | 65% | < 1.5 | 3.08 | 6.87 | 11.5 | 40.2 | 58.9 | 21.88 | 1.18 | –
CCCCCN(C)CCC(O)(P(=O)(O)O)P(=O)(O)O [IBANDRONIC ACID] | – | – | – | – | – | 39.8 | 34.2 | – | – | –
O=P(O)(O)C(Sc1ccc(Cl)cc1)P(=O)(O)O | 58.4% | < 1.5 | 2.27 | 6.31 | 10.6 | – | – | – | – | –
CCCCC(P(=O)(O)O)P(=O)(O)O | – | – | – | – | – | 61.2 | 62.4 | – | – | –
CC(C)C[C@H](NC(=O)[C@H](CCCCN)NC(=O)CNC(=O)[C@H](CC(C)C)NC(=O)[C@@H](NC(=O)[C@@H]1CSSC[C@H](N)C(=O)N[C@@H](CO)C(=O)N[C@@H](CC(N)=O)C(=O)N[C@@H](CC(C)C)C(=O)N[C@@H](CO)C(=O)N[C@@H]([C@@H](C)O)C(=O)N1)C(C)C)C(=O)N[C@@H](CO)C(=O)N[C@@H](CCC(N)=O)C(=O)N[C@@H](CCC(=O)O)C(=O)N[C@@H](CC(C)C)C(=O)N[C@@H](Cc1c[nH]cn1)C(=O)N[C@@H](CCCCN)C(=O)N[C@@H](CC(C)C)C(=O)N[C@@H](CCC(N)=O)C(=O)N[C@H](C(=O)N[C@@H](Cc1ccc(O)cc1)C(=O)N1CCC[C@H]1C(=O)N[C@@H](CCCNC(=N)N)C(=O)N[C@H](C(=O)N[C@@H](CC(N)=O)C(=O)N[C@H](C(=O)NCC(=O)N[C@@H](CO)C(=O)NCC(=O)N[C@H](C(=O)N1CCC[C@H]1C(N)=O)[C@@H](C)O)[C@@H](C)O)[C@@H](C)O)[C@@H](C)O [CALCITONIN SALMON] | – | – | – | – | – | – | – | 27.5 | – | 0.01
